Among the test systems are HCC 2998; HT-29; CCRF-CEM; SK-MEL-2; HOP-92; OVCAR-4; RXF 393; U-251; NCI-H522; NCI-H23; UACC-257; SR; Malme-3M; HOP-62; KM-20L2; ACHN; BT-549; Hs-578T; MDA-MB-435; NCI/ADR-RES.
What all share (experiment): inhibition of tumour cell growth, NCI panel, 48 h

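Step 1: Grow cells in 96-well plates. Step 2: Expose to compound for 48 hours at 5 concentrations. Step 3: Interpolate endpoints linearly; if unreached, use highest concentration. At the GI50, growth is halved.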 Active and inactive are the calls of the source. No stated cut-off is given here; in the data, active = GI50 up to about 1.1 µM and inactive = higher.

Take `CCCCCCCCCCCC(=O)CC(=O)c1c(O)cccc1O`: the GI50 in the experiment with HCC 2998 was 29 µM (inactive); with HT-29 it was 17.5 µM (inactive); in the experiment on CCRF-CEM, > 100 µM (inactive); with SK-MEL-2, 14.1 µM (inactive); in the experiment with HOP-92 it was 20.4 µM (inactive); with OVCAR-4, 17.3 µM (inactive). The GI50 was 17.7 µM (inactive) in the experiment on RXF 393; 17.7 µM (inactive) in the experiment with U-251; 22.2 µM (inactive) in the experiment with NCI-H522; 19.6 µM (inactive) in the experiment on NCI-H23; 17.5 µM (inactive) with UACC-257; 19.4 µM (inactive) with SR. The GI50 is 15.5 µM (inactive) with Malme-3M, 23.7 µM (inactive) in the experiment with HOP-62, 20.5 µM (inactive) with KM-20L2 and 19.2 µM (inactive) in the experiment with ACHN.
Regarding `C/C=C(/C)C(=O)O[C@H]1[C@H](O)CC(c2ccc3c(c2O)C(=O)C2=C(O)C4(OC)C(=O)C(C(N)=O)=C(O)[C@H](CC(=O)c5ccccc5O)C4CC2[C@@]3(C)OC)O[C@@H]1C` (some centres not stated), the GI50 in the experiment on HCC 2998 was 0.0326 µM (active); with HT-29 it was 0.00246 µM (active); in the experiment on CCRF-CEM, 0.0281 µM (active); in the experiment with SK-MEL-2, 0.00621 µM (active); with BT-549, 0.0187 µM (active); in the experiment on HOP-92, 0.0218 µM (active). The GI50 was 0.0849 µM (active) with OVCAR-4; 0.0041 µM (active) in the experiment with Hs-578T; 0.0198 µM (active) in the experiment with RXF 393; 0.00256 µM (active) in the experiment with U-251; 0.00557 µM (active) in the experiment with NCI-H522; 0.00711 µM (active) with NCI-H23. Moreover, the GI50 was 0.0165 µM (active) in the experiment on UACC-257; 0.0187 µM (active) in the experiment on MDA-MB-435; 0.00426 µM (active) in the experiment on SR; 0.0182 µM (active) in the experiment on Malme-3M; 0.00331 µM (active) with HOP-62; 0.01 µM (active) in the experiment with KM-20L2. Also, the GI50 was 8.43 µM (inactive) in the experiment with NCI/ADR-RES and 0.00418 µM (active) in the experiment on ACHN.
Take `COc1ccc(N2C(=O)C3c4[nH]c5ccc(OC)cc5c4C4CCC(C(C)(C)C)CC4C3C2=O)cc1` (configuration not stated): the GI50 in the experiment on HCC 2998 is 45.3 µM (inactive); in the experiment on HT-29, 32.5 µM (inactive); in the experiment with CCRF-CEM it was 58.6 µM (inactive); in the experiment on SK-MEL-2, 17.5 µM (inactive); in the experiment with HOP-92, 10.7 µM (inactive); in the experiment on OVCAR-4, 4.71 µM (inactive). Moreover, the GI50 was 16.1 µM (inactive) in the experiment with RXF 393; 17.5 µM (inactive) in the experiment on U-251; 20.7 µM (inactive) in the experiment with NCI-H522; 19.1 µM (inactive) in the experiment on NCI-H23; 55.2 µM (inactive) in the experiment on UACC-257; 17.4 µM (inactive) with SR. Besides, the GI50 is 7.03 µM (inactive) in the experiment on Malme-3M, 16 µM (inactive) with HOP-62, 86.9 µM (inactive) in the experiment on KM-20L2 and 28.5 µM (inactive) with ACHN.
As to `CCNC(=O)/C(=C/c1ccc(OC)cc1)c1cc(OC)c(OC)c(OC)c1`, the GI50 with HCC 2998 was 4.68 µM (inactive); in the experiment with HT-29, 3.41 µM (inactive); in the experiment on CCRF-CEM, 6.79 µM (inactive); with SK-MEL-2, 7.57 µM (inactive); with BT-549 it was 14.4 µM (inactive); in the experiment with HOP-92, 28.3 µM (inactive). Further, the GI50 in the experiment with OVCAR-4 is 68.2 µM (inactive); in the experiment on Hs-578T, 5.26 µM (inactive); with RXF 393, 1.95 µM (inactive); with U-251, 7.21 µM (inactive); with NCI-H522, 4.92 µM (inactive); with NCI-H23 it was 13 µM (inactive). Further, the GI50 with UACC-257 is 13.5 µM (inactive); in the experiment on MDA-MB-435, 2.09 µM (inactive); in the experiment with SR, 4.17 µM (inactive); with Malme-3M, 5.53 µM (inactive); in the experiment with HOP-62, 10.9 µM (inactive); with KM-20L2, 3.91 µM (inactive). Besides, the GI50 in the experiment with NCI/ADR-RES was 3 µM (inactive); in the experiment on ACHN, 32.8 µM (inactive).
